Measurements taken from patent US20120142028A1, “[…] […] ANTI-CANCER RESPONSE TO EPIDERMAL GROWTH FACTOR RECEPTOR KINASE INHIBITORS” (OSI Pharmaceuticals, LLC, priority 2009, published 2012).
Several values for one entry are separate records, joined by “and”; a condition that tells them apart may be missing. Equal values may be shown once. Entries after “also recorded” stand apart in the source; their conditions may differ.

Test system: patients who had had progression after standard chemotherapy for non-small-cell lung cancer
Assay: NCIC CTG BR.21 Phase 3 trial of TARCEVA vs placebo; survival and PFS by tumor E-cadherin/vimentin IHC status
Type: in vivo, human
Details: for Hazard Ratio (H/L) (95% CI) / Median Survival / Median PFS: Erlotinib arm; for Hazard Ratio (95% CI): Erlotinib vs. Placebo; for Median PFS: progression free survival
Protocol: The NCIC CTG. BR.21 study was a Phase 3 trial of TARCEVA® involving patients who had had progression after standard chemotherapy for non-small-cell lung cancer (i.e. 2nd and 3rd line NSCLC; Shepherd F A, et al. N Engl. J. Med 2005; 353:123-132.). Patients were randomly assigned in a 2:1 ratio to receive 150 mg of TARCEVA® (erlotinib HCl) daily or placebo. The primary end point was overall survival. Progression free survival and response were secondary end points. Separate written consent was obtained for optional tissue banking and correlative studies.
Because the BR21 trial is one of the few TARCEVA® clinical trials that includes a large number of patients and an untreated placebo group, it is optimally designed to evaluate the predictive and prognostic potential of biomarkers. As such, the potential of vimentin and E-cadherin protein expression to serve as a predictive biomarker for overall survival and […] was assessed using remaining tumor samples from the BR21 study. IHC analysis of tumor tissue samples received from NCIC was used to determine E-Cadherin and vimentin protein expression. Sensitivity analyses were performed to determine optimal cut points for E-Cadherin and vimentin staining for classification of E-Cadherin and vimentin as “High” or “Low” for use as prognostic and/or predictive markers for survival and progression-free survival. Further analyses were performed to evaluate possible correlations of biomarker status with clinical outcomes of survival, progression-free survival, response and disease control.
Stained slides were scored by an experienced pathologist. Slides were first evaluated for quality of tissue and quality of staining Acceptable slides were then evaluated, with the pathologist generating an ‘H-1-score’ based on a subjective interpretation of the staining intensity of the chromagen labeled antibody. Four intensity levels were used in scoring the stained sections: 0 for no staining, +1 for weak or minimal staining, +2 for moderate staining, and +3 for strong staining. The relative percentage of total target cells expressing an intensity level is recorded as data.
Treatment groups as randomized (ITT population) were analyzed using all patients with evaluable tissue. Disease progression as assessed by the investigator was used for PFS (Progression Free Survival) analysis. Potential predictive benefit of E-Cadherin or vimentin expression was assessed by comparing trends in the hazard ratios. No treatments by biomarker interaction tests were performed. Three Scoring Methods were used for E-Cadherin and Vimentin: • 1. % Any Staining of tumor cells • 2. % of tumor cell Staining of Intensity +2 or +3 • 3. Composite Score Example: A sample read as 5% unstained, 35% staining of intensity +1, 45% staining of intensity +2, and 15% staining of intensity +3, would be scored as follows: • 95% any staining • 60% staining of intensity +2 or +3 • 0(5)+1(35)+2(45)+3(15)=Composite Score of 170 Overall survival is defined as the time from the study treatment start date to the date of death. If the patient receives the study treatment but the patient is still alive or a death date is unavailable, overall survival is calculated as the difference between the study treatment start date and the last date the patient was known to be alive. […] Progression free survival (PFS) is defined as the time from the study treatment start date to the documentation date of disease progression or the death date. As with overall survival, if no progression/death date is available, the PFS is calculated as the time from the study treatment start date to the last documented tumor assessment date, and is noted to be “censored”.
Table 6 illustrates the numbers of patients in each treatment arm who were E-Cadherin high vs. low, and vimentin high vs. low for the subset of patients for whom E-Cadherin and vimentin results were available (N=95). P-values are determined from univariate Kaplan-Meier analyses. […]

[1] = overall survival, E-Cadherin High
[2] = overall survival, E-Cadherin Low
[3] = overall survival, E-Cadherin/Vimentin High/High
[4] = overall survival, E-Cadherin/Vimentin High/Low
[5] = overall survival, E-Cadherin/Vimentin Low/High
[6] = overall survival, E-Cadherin/Vimentin Low/Low
[7] = overall survival, Patients with Known E-Cadherin Results
[8] = overall survival, Patients with Known Vimentin Results
[9] = overall survival, Vimentin High

## C#Cc1cccc(Nc2ncnc3cc(OCCOC)c(OCCOC)cc23)c1 [Erlotinib, [6,7-bis(2-methoxyethoxy)-4-quinazolin-4-yl]-(3-ethynylphenyl)amine]
E-Cadherin high subset (FIG. 3)
  Kaplan-Meier overall survival, Erlotinib arm compared to Placebo arm: more favorable
E-Cadherin high subset (FIG. 4)
  Kaplan-Meier progression free survival, Erlotinib arm compared to Placebo arm: more favorable
E-Cadherin low subset (FIG. 3)
  Kaplan-Meier overall survival, Erlotinib arm compared to Placebo arm: switched in direction but smaller in magnitude
E-Cadherin low subset (FIG. 4)
  Kaplan-Meier progression free survival, Erlotinib arm compared to Placebo arm: switched in direction but smaller in magnitude
Erlotinib arm (FIG. 3)
  Kaplan-Meier overall survival, E-Cadherin high subset compared to E-Cadherin low subset: more favorable
Erlotinib arm (FIG. 4)
  Kaplan-Meier progression free survival, E-Cadherin high subset compared to E-Cadherin low subset: more favorable
Erlotinib arm (FIG. 5)
  Kaplan-Meier overall survival, vimentin high subset compared to vimentin low subset: more favorable; also recorded: longer
Erlotinib arm (FIG. 6)
  Kaplan-Meier progression free survival, vimentin high subset compared to vimentin low subset: more favorable; also recorded: longer
PFS, E-Cadherin High vs. E-Cadherin Low (cut-point 40% staining of intensity +2 or +3)
  Hazard Ratio (H/L) (95% CI): 0.571 and 0.57
PFS, Vimentin High vs. Vimentin Low
  Hazard Ratio (H/L) (95% CI): 0.43
PFS, All Patients
  Hazard Ratio (95% CI): 0.64
PFS, E-Cadherin High
  Hazard Ratio (95% CI): 0.52
PFS, E-Cadherin Low
  Hazard Ratio (95% CI): 1.18
PFS, E-Cadherin/Vimentin High/High
  Hazard Ratio (95% CI): 0.235
PFS, E-Cadherin/Vimentin High/Low
  Hazard Ratio (95% CI): 0.73
PFS, E-Cadherin/Vimentin Low/High
  Hazard Ratio (95% CI): 0.24
PFS, E-Cadherin/Vimentin Low/Low
  Hazard Ratio (95% CI): 2.75
PFS, Patients with Known E-Cadherin Results
  Hazard Ratio (95% CI): 0.72
PFS, Patients with Known Vimentin Results
  Hazard Ratio (95% CI): 0.72
PFS, Vimentin High
  Hazard Ratio (95% CI): 0.28
PFS, Vimentin Low
  Hazard Ratio (95% CI): 1.11
Overall survival, All Patients
  Median Survival: 6.67 Months
  Hazard Ratio (95% CI): 0.76
[1]
  Median Survival: 11.3 Months
  Hazard Ratio (95% CI): 0.47
Overall survival, E-Cadherin High vs. E-Cadherin Low (cut-point 40% staining of intensity +2 or +3)
  Hazard Ratio (H/L) (95% CI): 0.682 and 0.68
[2]
  Median Survival: 4.86 Months
  Hazard Ratio (95% CI): 1.12
[3]
  Median Survival: 10.38 Months
  Hazard Ratio (95% CI): 0.31
[4]
  Median Survival: 12.06 Months
  Hazard Ratio (95% CI): 0.57
[5]
  Median Survival: 10.7 Months
  Hazard Ratio (95% CI): 0.26
[6]
  Median Survival: 4.81 Months
  Hazard Ratio (95% CI): 2.44
[7]
  Median Survival: 8.44 Months
  Hazard Ratio (95% CI): 0.69
[8]
  Median Survival: 8.44 Months
  Hazard Ratio (95% CI): 0.69
[9]
  Median Survival: 10.55 Months
  Hazard Ratio (95% CI): 0.26
Overall survival, Vimentin High vs. Vimentin Low
  Hazard Ratio (H/L) (95% CI): 0.65
Overall survival, Vimentin Low
  Median Survival: 6.11 Months
  Hazard Ratio (95% CI): 0.99
All Patients
  Median PFS: 2.23 Months
E-Cadherin High
  Median PFS: 3.68 Months
E-Cadherin Low
  Median PFS: 1.97 Months
E-Cadherin/Vimentin High/High
  Median PFS: 8.02 Months
E-Cadherin/Vimentin High/Low
  Median PFS: 2.66 Months
E-Cadherin/Vimentin Low/High
  Median PFS: 3.61 Months
E-Cadherin/Vimentin Low/Low
  Median PFS: 1.69 Months
Patients with Known E-Cadherin Results
  Median PFS: 2.38 Months
Patients with Known Vimentin Results
  Median PFS: 2.38 Months
Vimentin High
  Median PFS: 5.39 Months
Vimentin Low
  Median PFS: 2.18 Months
Subset of treated patients with high E-cadherin expression
  survival when treated with TARCEVA: longer survival
Subset of treated patients with high vimentin expression
  survival when treated with TARCEVA: significantly longer survival
Vimentin high subset (FIG. 5)
  Kaplan-Meier overall survival, Erlotinib arm compared to Placebo arm: more favorable
Vimentin high subset (FIG. 6)
  Kaplan-Meier progression free survival, Erlotinib arm compared to Placebo arm: more favorable
Vimentin low subset (FIG. 5)
  Kaplan-Meier overall survival, Erlotinib arm compared to Placebo arm: no difference
Vimentin low subset (FIG. 6)
  Kaplan-Meier progression free survival, Erlotinib arm compared to Placebo arm: no difference
